Data as given in paper PMC6267684, “Pharmacokinetic evaluation of the PNC disassembler metarrestin in wild-type and Pdx1-Cre;LSL-Kras^G12D/+;Tp53^R172H/+ (KPC) mice, a genetically engineered model of pancreatic cancer” (Cancer Chemotherapy and Pharmacology, 2018).
Like-named read-outs stand apart in the source and are kept apart here.

Assays:
[1] = Pharmacokinetics in C57BL/6 mice after single IV and PO administration; format: in vivo; conditions: for Kp: liver/plasma, read-out: AUC0–∞ ratio (tissue/plasma); for AUC(0-t): read-out: AUC0–24h
Experimental: For pharmacokinetic studies, metarrestin solutions prepared in 30% PEG-400 and 70% (20% w:v HP-β-CD in water) solution were administered to C57BL/6 mice at 3 mg/kg IV via tail vein injection, or 3 and 10 mg/kg orally via gavage. KPC mice were additionally treated with 25 mg/kg PO via gavage. The dosing volume was 3 mL/kg for IV route and 10 mL/kg for PO route. Dosing solutions were prepared on the day of administration. Blood samples were collected at 10, 20 min, 1, 2, 4, 7 and 24 h after 3 mg/kg IV administration. After oral administration of 3 and 10 mg/kg in C57BL6 mice, blood and liver samples were collected at 10 min, 0.5, 1, 2, 3, 5, 7, 9 and 24 h post dosing (n = 3 per time point). In KPC mice, blood, pancreatic tumor, spleen and liver samples were collected at 1, 2, 3, 6, 9, 12 and 24 h after 25 mg/kg PO administration.
Blood samples were collected in K2EDTA tubes and plasma was harvested after centrifugation at 3000 rpm for 10 min. Tissue samples were weighed and flash-frozen for PK and PD mRNA expression analyses, embedded into OCT blocks for PNC determination and processed into FFPE blocks for histopathology assessment. All PK samples were stored at − 80 °C until analysis.
An ultra-performance liquid chromatography–tandem mass spectrometry (UPLC–MS/MS) method was developed to determine metarrestin concentrations in plasma and tissue samples. Mass spectrometric analysis was performed on a Waters Xevo TQ-S triple quadrupole instrument using electrospray ionization in positive mode. The separation was performed on an Acquity BEH C18 column (50 × 2.1 mm, 1.7 µ) using a Waters Acquity UPLC system with 0.6 mL/min flow rate and gradient elution. Mobile phase A was 0.1% formic acid in water, and B was 0.1% formic acid in acetonitrile (ACN). The column temperature was maintained at 60 °C. The calibration standards and quality control (QC) samples were prepared in the control blank mouse plasma and tissue homogenate. Tissues were homogenized with 3 or 6 volumes (v/w) of deionized water on the day of analysis. Proteins were precipitated from 10 µL plasma or 5 µL tissue homogenate with 200 µL ACN containing 100 ng/mL Tolbutamide as internal standard in 96-well plates. The mixture was vortexed for 2 min and centrifuged at 4000 rpm for 30 min at 4 °C. An aliquot of 150 µL supernatant was transferred to a 350-µL 96-well plate. 0.2 µL supernatant was injected for the UPLC–MS/MS analysis. Data were analyzed using MassLynx V4.1.
The pharmacokinetic parameters were calculated using the non-compartmental approach (Models 200 and 201) of the pharmacokinetic software Phoenix WinNonlin, version 6.4 (Certara, St. Louis, MO). The area under the plasma concentration vs time curve (AUC) was calculated using the linear trapezoidal method. The slope of the apparent terminal phase was estimated by log linear regression using at least three data points and the terminal rate constant (λ) was derived from the slope. AUC0–∞ was estimated as the sum of the AUC0–t (where t is the time of the last measurable concentration) and Ct/λ. The apparent terminal half-life (t½) was calculated as 0.693/λ.

[2] = Steady-state PK in KPC mice fed metarrestin-infused chow; format: in vivo; conditions: 25 mg/kg PO chow MD
Experimental: Metarrestin [ML-246; Trans-4-(7-benzyl-4-imino-5,6-diphenyl-4,7-dihydro-3H-pyrrolo[2,3-d]pyrimidin-3-yl) cyclohexanol] was manufactured in-house using the previously described 4-step synthesis sequence. Purity (> 98%) was determined by LC-MS/MS and 1H-NMR analysis as previously reported. To enhance bioavailability, the drug was micronized to particles of uniform small size with greater surface area using a technique proprietary to Crititech Inc. (Lawrence, Kansas). In brief, the drug substance was dissolved in organic solvent dichloromethane and precipitated using compressed super critical carbon dioxide as the anti-solvent. The produced material had 90% particles with a diameter less than 1.131 µm with a mean diameter of 0.829 µm (Suppl. Figure 1). […]
An ultra-performance liquid chromatography–tandem mass spectrometry (UPLC–MS/MS) method was developed to determine metarrestin concentrations in plasma and tissue samples. […] Data were analyzed using MassLynx V4.1.
The pharmacokinetic parameters were calculated using the non-compartmental approach (Models 200 and 201) of the pharmacokinetic software Phoenix WinNonlin, version 6.4 (Certara, St. Louis, MO). The area under the plasma concentration vs time curve (AUC) was calculated using the linear trapezoidal method. […]

[3] = C57BL/6, mouse, liver, po, 3 mg/kg, 3 mg/kg PO single dose
[4] = C57BL/6, mouse, liver, po, 10 mg/kg, 10 mg/kg PO single dose
[5] = C57BL/6, mouse, liver, 3 mg/kg PO single dose
[6] = C57BL/6, mouse, liver, 10 mg/kg PO single dose
[7] = C57BL/6, mouse, plasma, 3 mg/kg IV single dose
[8] = C57BL/6, mouse, plasma, 3 mg/kg PO single dose
[9] = C57BL/6, mouse, plasma, 10 mg/kg PO single dose

## N=c1c2c(-c3ccccc3)c(-c3ccccc3)n(Cc3ccccc3)c2ncn1[C@H]1CC[C@H](O)CC1 [metarrestin, Trans-4-(7-benzyl-4-imino-5,6-diphenyl-4,7-dihydro-3H-pyrrolo[2,3-d]pyrimidin-3-yl) cyclohexanol]
[1]; [3]
  Kp: > 50
  half-life: 4.7 h
[1]; [4]
  Kp: > 50
  half-life: 4.1 h
[1]; C57BL/6, mouse, plasma, intravenous, oral, 10 mg/kg, low doses of 3 and 10 mg/kg, span over groups
  half-life: 5 to 5.6 h
[1]; C57BL/6, mouse, plasma, iv, 3 mg/kg, 3 mg/kg IV single dose
  half-life: ~5 h
[1]; C57BL/6, mouse, plasma, po, 3 mg/kg, 3 mg/kg PO single dose
  half-life: 5.4 h
[1]; C57BL/6, mouse, plasma, po, 10 mg/kg, single oral dose 3 and 10 mg/kg via gavage
  bioavailability: > 80%
[1]; C57BL/6, mouse, plasma, po, 10 mg/kg, 10 mg/kg PO single dose
  half-life: 5.6 h
[1]; [5]
  AUC(0-inf): 68600 ng·h/mL
  Cmax: 5420 ng/mL
  Tmax: 1 h
  AUC(0-t): 66100 ng·h/mL
[1]; [6]
  AUC(0-inf): 281000 ng·h/mL
  Cmax: 21400 ng/mL
  Tmax: 2 h
  AUC(0-t): 276000 ng·h/mL
[1]; [7]
  AUC(0-inf): 1040 ng·h/mL
  AUC(0-t): 1010 ng·h/mL
[1]; C57BL/6, mouse, plasma, 3 mg/kg IV single dose, read-out: CLp (plasma clearance)
  clearance: 48 mL/min/kg
[1]; C57BL/6, mouse, plasma, 3 mg/kg IV single dose, read-out: Vdss (steady-state volume of distribution)
  Vd: 17 L/kg
[1]; [8]
  AUC(0-inf): 871 ng·h/mL
  Cmax: 55.7 ng/mL
  Tmax: 2 h
  AUC(0-t): 823 ng·h/mL
[1]; [9]
  AUC(0-inf): 4790 ng·h/mL
  Cmax: 349 ng/mL
  Tmax: 2 h
  AUC(0-t): 4520 ng·h/mL
[1]; plasma, 3 mg/kg IV single dose, 3 mg/kg
  t 1/2: 5 h
[2]
  intratumor AUC0–24h: 396,000 h ng/mL
